Test results taken from PMC11231141, “Ube3a unsilencer for the potential treatment of Angelman syndrome” (Nature Communications, 2024).
Read-outs that look alike come from different tables or passages of the source.

Assays:
Ube3a mRNA = test: quantitative RT-PCR of Ube3a mRNA in wild-type primary neurons; assay type: cell-based, mouse
Procedure: from the paternal allele in mouse wild-type primary neurons. Primar y cortical neurons derived from wild-type (WT) mice were treated either with 0.1% DMSO as a vehicle, 1 µM ( S)-P HA53 35 33 , or 0.3 µ M to po te can for 72 hours at DIV7. Following the treatment, the relative quantity of ( a) Ube3a […]
determined through western blotting, with the data averaged across three individual experiments, depicted in (c). All data were normalized to GAPDH/Gapdh expression, log- transformed, mean-centered, and autoscaled for statistical analysis (n = 4 experiments fo r R T-PCR, and n = 3 for western blot; me a n ± SE M , o n e -way ANOVA followed by Dunnett ’s post hoc test, ** p < 0.01, *** p < 0.001, **** p < 0.0001). µM – micromolar; DMSO – dimethyl sulfoxide; kDA – kilodalton; Norm. – […]
(1 picture or pasted object on this page, not shown here)

paternal UBE3A-YFP = paternal UBE3A-YFP western blot after ASO-mediated knockdown of candidate targets; assay type: cell-based, mouse; settings: for unsilencing of paternal Ube3a after ASO-mediated knockdown of TOP1: 10 µM ASO at DIV5, 1 µM (S)-PHA533533 or 0.3 µM topotecan 72 h from DIV7
Procedure: . […] Scrambled ASO together with DMSO treatment were used as controls for any non-specific effects.
The addition of TOP1 catalyzes supercoiled DNA substrate (lane 1) into slower migrating relaxed DNA (lane 2). […] . Following the treatment, the relative quantities of (h) Snord115, (i) Dlg2, (j) Nrxn3, (k) Malat1, (l) Pantr1, and (m) Airn transcripts were determined by quantitative RT-PCR (n = 4 experiments; mean ± SEM).
2’ MOE gapmer antisense oligonucleotides (ASOs) designed to target mouse Cdk2 sequence […], Cdk5 sequence […], Top1 sequence […], and scrambled […] sequence as a negative control (Integrated DNA Technologies) were formulated in water and added to cultured cortical neurons grown on 6-well plates at DIV5 at a final concentration of 10 μM. Neurons were further cultured and treated at DIV7 with vehicle (0.1% DMSO) or the indicated compounds for 72 h. For western blot analysis, neurons were washed once with PBS and then lysed using RIPA buffer (50 mM Tris-HCl pH 8.0, 150 mM NaCl, 1% NP−40, 0.5% Na-deoxycholate, 0.5% SDS) and protease inhibitor cocktail (P8340, MilliporeSigma) on ice.

TOP1 = molecular target: T1, TOP1 (Homo sapiens, UniProt P11387); test: TOP1-mediated DNA relaxation assay; assay type: biochemical; settings: 3 μM topotecan; increasing concentrations of (S)- and (R)-PHA533533; vs DMSO
T1 construct: purchased TopoGEN
T1 sequence (P11387 1-765): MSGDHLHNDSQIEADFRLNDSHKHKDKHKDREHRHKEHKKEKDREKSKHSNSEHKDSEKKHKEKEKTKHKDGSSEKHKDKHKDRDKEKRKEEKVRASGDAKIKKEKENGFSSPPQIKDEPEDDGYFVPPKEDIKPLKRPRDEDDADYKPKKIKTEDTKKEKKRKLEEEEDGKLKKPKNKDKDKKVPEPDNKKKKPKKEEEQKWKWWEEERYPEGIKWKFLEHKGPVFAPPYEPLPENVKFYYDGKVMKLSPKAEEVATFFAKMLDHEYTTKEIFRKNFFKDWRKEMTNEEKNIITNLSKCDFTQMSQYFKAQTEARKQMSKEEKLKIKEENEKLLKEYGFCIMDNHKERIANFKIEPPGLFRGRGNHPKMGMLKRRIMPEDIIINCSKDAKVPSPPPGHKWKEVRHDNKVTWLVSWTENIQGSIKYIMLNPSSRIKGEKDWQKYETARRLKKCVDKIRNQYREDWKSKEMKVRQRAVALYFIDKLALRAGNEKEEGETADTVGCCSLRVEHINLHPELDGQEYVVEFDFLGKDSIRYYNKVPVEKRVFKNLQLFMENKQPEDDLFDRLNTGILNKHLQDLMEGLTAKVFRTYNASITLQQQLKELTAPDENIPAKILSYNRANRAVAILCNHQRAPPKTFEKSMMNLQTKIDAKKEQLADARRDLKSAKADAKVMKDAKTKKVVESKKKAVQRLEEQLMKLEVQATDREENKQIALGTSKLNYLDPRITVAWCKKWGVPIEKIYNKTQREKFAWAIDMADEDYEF
Source text: […]. […] […]. […] […]. […] […].
The Pfizer chemogenetic library and PHA533533 derivatives were provided by the Compound Transfer Program (CTP) at Pfizer. Topotecan hydrochloride salt was purchased from Cayman Chemicals (Item No. 14129). […] […]. The Human Topoisomerase I Assay Kit was purchased from TopoGEN and performed according to the manufacturer’s protocols.

| Structure (SMILES) | Ube3a mRNA levels in WT neurons (Ube3a mRNA) | unsilencing of paternal UBE3A-YFP after ASO-mediated knockdown of CDK5 (paternal UBE3A-YFP; 10 µM ASO at DIV5, 1 µM (S)-PHA533533 72 h from DIV7) | unsilencing of paternal Ube3a after ASO-mediated knockdown of TOP1 (paternal UBE3A-YFP) | inhibition of TOP1 catalytic activity to relax supercoiled DNA (TOP1) | Ube3a mRNA levels in WT neurons (Ube3a mRNA; 1 µM (S)-PHA533533 or 0.3 µM topotecan, 72 h at DIV7) |
| --- | --- | --- | --- | --- | --- |
| C[C@H](C(=O)Nc1cc(C2CC2)[nH]n1)c1ccc(N2CCCC2=O)cc1 [(S)-PHA533533] | significantly increased | nor did it occlude the unsilencing | did not affect | had no effect on the TOP1 activity |  |
| CC[C@@]1(O)C(=O)OCc2c1cc1n(c2=O)Cc2cc3c(CN(C)C)c(O)ccc3nc2-1 [Topotecan, reference compound] |  |  | almost completely occluded | clearly inhibited TOP1 catalytic activity | significantly increased |
